The results in this text go back to US10093623B2, “Cyclic amides as MetAP-2 inhibitors” (MERCK PATENT GmbH, priority 2012, dated 2018).

SMILES strings stand for the structures.

For the assay, the target named is MetAP-2 (Homo sapiens, UniProt P50579). Description: MetAP-2 activity measurement (coupled enzymatic reactions, Met-Arg-Ser substrate, dianisidine detection at 450 nm). Type of assay: biochemical. The following applies: Inhibition of MetAP-2; read-out: IC50 enzyme. The essentials:
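Coupled continuous assay with Met-Arg-Ser tripeptide substrate: released methionine oxidised by L-amino acid oxidase to give H2O2, which peroxidase uses to oxidise dianisidine, followed at 450 nm. Activity taken as slope of absorbance versus time over the visually linear region; dianisidine extinction coefficient converts to mol Met per time.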

MetAP-2, sequence (P50579 whole entry, species assumed): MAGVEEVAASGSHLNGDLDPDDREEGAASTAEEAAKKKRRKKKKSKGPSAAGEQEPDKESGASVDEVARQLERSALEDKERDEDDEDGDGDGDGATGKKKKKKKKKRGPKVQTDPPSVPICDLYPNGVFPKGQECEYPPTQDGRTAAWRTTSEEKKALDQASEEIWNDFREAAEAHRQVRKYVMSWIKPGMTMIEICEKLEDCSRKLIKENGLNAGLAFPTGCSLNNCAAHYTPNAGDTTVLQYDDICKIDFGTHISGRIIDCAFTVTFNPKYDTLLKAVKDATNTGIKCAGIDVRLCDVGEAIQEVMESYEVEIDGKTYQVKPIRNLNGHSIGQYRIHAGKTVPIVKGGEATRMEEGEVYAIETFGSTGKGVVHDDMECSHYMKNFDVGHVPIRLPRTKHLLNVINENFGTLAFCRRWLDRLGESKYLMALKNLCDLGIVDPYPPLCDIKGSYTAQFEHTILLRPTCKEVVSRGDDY

Turning to `CC1(C)CN(c2ccccc2)C(=O)[C@]1(O)C(=O)NCc1cc(F)cc(Cl)c1` [A109, N-(3-Chloro-5-fluorobenzyl)-(R)-3-hydroxy-4,4-dimethyl-2-oxo-1-phenylpyrrolidine-3-carboxamide], the IC50 was more than 10 µM. In the case of `O=C(NCc1cccc(F)c1Cl)C1(O)CCN(c2ccc3[nH]ccc3c2)C1=O` (centres unmarked) [A206, N-(2-Chloro-3-fluorobenzyl)-3-hydroxy-1-(1H-indol-5-yl)-2-oxo-pyrrolidine-3-carboxamide] it was 0.01 to 1 µM; in that of `N#Cc1c[nH]c2ccc(N3CC[C@](O)(C(=O)NCc4cc(F)cc(Cl)c4)C3=O)cc12` [A222, N-(3-Chloro-5-fluorobenzyl)-(S)-1-(3-cyano-1H-indol-5-yl)-3-hydroxy-2-oxopyrrolidine-3-carboxamide], 0.01 to 1 µM. With `O=C(NCc1ccccn1)[C@]1(O)CCCN(Cc2cccc(F)c2F)C1=O` [A260, N-(Pyridin-2-ylmethyl)-(R)-1-(2,3-difluorobenzyl)-3-hydroxy-2-oxopiperidine-3-carboxamide], the half-maximal inhibitory concentration (IC50) was more than 10 µM. In the case of `CN(C)CCNC(=O)[C@@]1(O)CCN(c2ccccc2)C1=O` [A59, N-(2-Dimethylaminoethyl)-(S)-3-hydroxy-2-oxo-1-phenylpyrrolidine-3-carboxamide] it was more than 10 µM. Take `CC(C)(C)OC(=O)N1C[C@@H]2[C@H](C1)[C@H]2N1CCC(O)(C(=O)NCc2cc(F)cc(Cl)c2)C1=O` (stereo partly drawn) [A228, tert-Butyl (1S,5R,6S)-6-[3-(3-chloro-5-fluorobenzyl-carbamoyl)-3-hydroxy-2-oxo-pyrrolidin-1-yl]-3-azabicyclo-[3.1.0]hexane-3-carboxylate]: the IC50 was in the range of 1 to 10 µM.

For `CN(CCO)C(=O)c1cccc(N2CC[C@@](O)(C(=O)NCc3cc(F)cc(Cl)c3)C2=O)c1` [A102, N-(3-Chloro-5-fluorobenzyl)-(R)-3-hydroxy-1-{3-[(2-hydroxy-ethyl)methylcarbamoyl]phenyl}-2-oxopyrrolidine-3-carboxamide], the IC50 was 1 to 10 µM. Regarding `CC(=O)N1CC[C@@H](N2CCC(O)(C(=O)NCc3cc(F)cc(Cl)c3)C2=O)C1` (stereo partly drawn) [A291, N-(3-chloro-5-fluorobenzyl-)(R)-1′-acetyl-3-hydroxy-2-oxo-[1,3′]bipyrrolidinyl-3-carboxamide], the IC50 is 1 to 10 µM.

As to `CN(C)C(=O)c1cc2cc(N3CC[C@@](O)(C(=O)NCc4cc(F)cc(Cl)c4)C3=O)ccc2[nH]1` [B90, N,N-Dimethyl-5-[(R)-3-(3-chloro-5-fluorobenzylcarbamoyl)-3-hydroxy-2-oxopyrrolidin-1-yl]-1H-indole-2-carboxamide], the IC50 is more than 10 µM.

In the case of `O=C(NCc1cc(F)cc(Cl)c1)C1(O)C(=O)N(c2ccccc2)CC12COC2` (centres unmarked) [A113, N-(3-Chloro-5-fluorobenzyl)-8-hydroxy-7-oxo-6-phenyl-2-oxa-6-azaspiro[3.4]octane-8-carboxamide], the IC50 was more than 10 µM. In the case of `O=C1CCc2cc(N3CC[C@](O)(C(=O)NCc4cc(Cl)c(F)cc4F)C3=O)ccc2N1` [A235, N-(5-Chloro-2,4-difluorobenzyl)-(S)-3-hydroxy-2-oxo-1-(2-oxo-1,2,3,4-tetrahydroquinolin-6-yl)-pyrrolidine-3-carboxamide] it was 0.01 to 1 µM; in that of `O=C1CCc2cc(N3CCC(O)(C(=O)NCc4cc(F)cc(Cl)c4)C3=O)c(F)cc2N1` (centres unmarked) [B109, N-(3-Chloro-5-fluorobenzyl)-1-(7-fluoro-2-oxo-1,2,3,4-tetrahydroquinolin-6-yl)-3-hydroxy-2-oxopyrrolidine-3-carboxamide], 0.01 to 1 µM; in that of `O=C(NCc1cc(F)cc(Cl)c1)[C@]1(O)CCN(c2ccc3[nH]c(=O)ccc3c2)C1=O` [B41, N-(3-Chloro-5-fluorobenzyl)-(R)-3-hydroxy-2-oxo-1-(2-oxo-1,2-dihydroquinolin-6-yl)pyrrolidine-3-carboxamide], 1 to 10 µM.

For `Cc1cncc(N2CCC(O)(C(=O)NCc3cc(F)cc(Cl)c3)C2=O)c1` (centres unmarked) [A117, N-(3-Chloro-5-fluorobenzyl)-3-hydroxy-1-(5-methylpyridin-3-yl)-2-oxopyrrolidine-3-carboxamide], the 50% inhibitory concentration (IC50) was in the range of 0.01 to 1 µM. As to `O=C(NCc1cc(F)cc(Cl)c1)[C@@]1(O)CCN(c2cnc3[nH]ncc3c2)C1=O` [B75, N-(3-Chloro-5-fluorobenzyl)-(S)-3-hydroxy-2-oxo-1-(1H-pyrazolo[3,4-b]pyridin-5-yl)-pyrrolidine-3-carboxamide], the concentration for half-maximal inhibition (IC50) was 0.01 to 1 µM. The figure for `CC1CC(O)(C(=O)NCc2cc(F)cc(Cl)c2)C(=O)N1c1ccccc1` (centres unmarked) [A119, N-(3-chloro-5-fluorobenzyl)-3-hydroxy-5-methyl-2-oxo-1-phenylpyrrolidine-3-carboxamide] is 1 to 10 µM. The figure for `O=C(NCc1cc(F)cc(Cl)c1)[C@]1(O)CCCN(Cc2ccccc2)C1=O` [A86, N-(3-Chloro-5-fluorobenzyl)-(R)-1-benzyl-3-hydroxy-2-oxo-piperidine-3-carboxamide] is more than 10 µM; for `O=C1CCc2cc(N3CC[C@](O)(C(=O)NCc4cc(F)ccc4F)C3=O)ccc2N1` [B24, N-(2,5-Difluorobenzyl)-(S)-3-hydroxy-2-oxo-1-(2-oxo-1,2,3,4-tetrahydroquinolin-6-yl)-pyrrolidine-3-carboxamide] it is 0.01 to 1 µM. In the case of `O=C(NCCc1cc(F)cc(F)c1)C1(O)CCN(c2ccc3[nH]ccc3c2)C1=O` (centres unmarked) [A207, N-[2-(3,5-Difluorophenyl)ethyl]-3-hydroxy-1-(1H-indol-5-yl)-2-oxopyrrolidine-3-carboxamide] it was 0.01 to 1 µM; in that of `N#CCn1cc(N2CC[C@@](O)(C(=O)NCc3cc(F)cc(Cl)c3)C2=O)cn1` [B117, N-(3-Chloro-5-fluorobenzyl)-(R)-1-(1-cyanomethyl-1H-pyrazol-4-yl)-3-hydroxy-2-oxopyrrolidine-3-carboxamide], more than 10 µM; in that of `CN(C)C(=O)c1cccc(N2CCC(O)(C(=O)NCc3cc(F)cc(Cl)c3)C2=O)c1` (centres unmarked) [A134, N-(3-Chloro-5-fluorobenzyl)-1-(3-Dimethylcarbamoylphenyl)-3-hydroxy-2-oxopyrrolidine-3-carboxamide], 0.01 to 1 µM.

For `CC1(C)CN(c2ccccc2)C(=O)[C@@]1(O)C(=O)NCc1cc(F)cc(Cl)c1` [A101, N-(3-Chloro-5-fluorobenzyl)-(S)-3-hydroxy-4,4-dimethyl-2-oxo-1-phenylpyrrolidine-3-carboxamide], the IC50 was more than 10 µM.

As for `O=C(NC1CC1)c1cccc(N2CC[C@@](O)(C(=O)NCc3cc(F)cc(Cl)c3)C2=O)c1` [A82, N-(3-Chloro-5-fluorobenzyl)-(R)-1-(3-cyclopropylcarbamoylphenyl)-3-hydroxy-2-oxopyrrolidine-3-carboxamide], the half-inhibitory concentration (IC50) lay within 1 to 10 µM. The figure for `O=C1N(c2ccccc2)CCC1(O)CNCc1ccc(F)cc1` (centres unmarked) [B45, 3-[(4-Fluorobenzylamino)-methyl]-3-hydroxy-1-phenyl-pyrrolidin-2-one] is 1 to 10 µM; for `O=C1CCc2cc(CN3CCC(O)(C(=O)NCc4cc(F)cc(Cl)c4)C3=O)ccc2N1` (centres unmarked) [B69, N-(3-Chloro-5-fluorobenzyl)-3-hydroxy-2-oxo-1-(2-oxo-1,2,3,4-tetrahydroquinolin-6-ylmethyl)-pyrrolidine-3-carboxamide] it is 0.01 to 1 µM; for `O=C(NCc1cc(F)cc(Cl)c1)C1(O)CCN(C[C@H]2CC[C@@H](C(=O)O)CC2)C1=O` (some centres unmarked) [A274, 4-[3-(3-Chloro-5-fluorobenzylcarbamoyl)-3-hydroxy-2-oxopyrrolidin-1-yl-methyl]cyclohexanecarboxylic acid] it is 1 to 10 µM. The figure for `O=C(NCCc1ccccc1F)C1(O)CCN(c2ccc3[nH]ccc3c2)C1=O` (centres unmarked) [A210, N-[2-(2-Fluorophenyl)ethyl]-3-hydroxy-1-(1H-indol-5-yl)-2-oxo-pyrrolidine-3-carboxamide] is 0.01 to 1 µM. The figure for `O=C(NCc1cc(F)cc(Cl)c1)C1(O)CCN(c2cc(C(F)(F)F)ccc2F)C1=O` (centres unmarked) [B26, N-(3-Chloro-5-fluorobenzyl)-1-(2-Fluoro-5-trifluoromethyl-phenyl)-3-hydroxy-2-oxo-pyrrolidine-3-carboxamide] is 0.01 to 1 µM; for `NC(=O)c1ccc(F)c(N2CC[C@](O)(C(=O)NCc3cc(F)cc(Cl)c3)C2=O)c1` [B70, N-(3-Chloro-5-fluorobenzyl)-(S)-1-(5-carbamoyl-2-fluorophenyl)-3-hydroxy-2-oxopyrrolidine-3-carboxamide] it is 0.01 to 1 µM; for `O=C(NCc1cc(F)cc(Cl)c1)[C@]1(O)CCN(CCc2ccccc2)C1=O` [A92, N-(3-Chloro-5-fluorobenzyl)-(R)-3-hydroxy-2-oxo-1-phenethyl-pyrrolidine-3-carboxamide] it is 1 to 10 µM. For the compound `O=C(NCc1cc(F)cc(Cl)c1)[C@@]1(O)CCN(c2cc(C(F)(F)F)ccc2F)C1=O` [B39, N-(3-Chloro-5-fluorobenzyl)-(S)-1-(2-Fluoro-5-trifluoromethyl-phenyl)-3-hydroxy-2-oxo-pyrrolidine-3-carboxamide], the IC50 fell in the range of 0.01 to 1 µM. The figure for `O=C(NCCCO)c1cccc(N2CC[C@@](O)(C(=O)NCc3cc(F)cc(Cl)c3)C2=O)c1` [A103, N-(3-Chloro-5-fluorobenzyl)-(R)-3-hydroxy-1-[3-(3-hydroxy-propylcarbamoyl)phenyl]-2-oxo-pyrrolidine-3-carboxamide] is 1 to 10 µM.

On to `O=C1CCc2cc(N3CC[C@](O)(C(=O)NCc4cc(F)c(F)cc4Cl)C3=O)ccc2N1` [A234, N-(2-Chloro-4,5-difluorobenzyl)-(S)-3-hydroxy-2-oxo-1-(2-oxo-1,2,3,4-tetrahydroquinolin-6-yl)-pyrrolidine-3-carboxamide], for which the IC50 lay in the range of 0.01 to 1 µM. In the case of `O=C(NCc1cc(F)cc(Cl)c1)[C@@]1(O)CCN(CCc2c[nH]c3ccccc23)C1=O` [B37, N-(3-Chloro-5-fluorobenzyl)-(S)-3-hydroxy-1-[2-(1H-indol-3-yl)-ethyl]-2-oxopyrrolidine-3-carboxamide] it was 0.01 to 1 µM; in that of `O=C(NCCc1ccccc1F)[C@@]1(O)CCN(c2ccc3[nH]ccc3c2)C1=O` [B14, (S)-3-hydroxy-1-(1H-indol-5-yl)-2-oxopyrrolidine-3-carboxylic acid[2-(2-fluorophenyl)ethyl]-amide], 0.01 to 1 µM.

What is called IC50 is the concentration at which inhibition is half-maximal.
